Square brackets hold non-standard residues; d marks the D form. Peptide text beside a SMILES is read from it. Hyp = O=C(O)[C@@H]1C[C@@H](O)CN1
Target: T1, DPPIV enzyme; human recombinant (Homo sapiens, UniProt P27487)
T1 construct: purchased BIOMOL E434-9090 (kit AK-499)
Experiment: DPPIV inhibitory activity (DPPIV Drug Discovery Kit-AK-499, H-Gly-Pro-AMC substrate)
Assay type: biochemical
Settings: discussion of results
Procedure: DPPIV inhibitory activity was determined by using a DPPIV inhibitory activity measuring kit “DPPIV Drug Discovery Kit-AK-499” (manufactured by BIOMOL). […] Inhibitory activity was evaluated by the concentration at which 50% of DPPIV activity was inhibited.

T1 sequence (P27487 whole entry): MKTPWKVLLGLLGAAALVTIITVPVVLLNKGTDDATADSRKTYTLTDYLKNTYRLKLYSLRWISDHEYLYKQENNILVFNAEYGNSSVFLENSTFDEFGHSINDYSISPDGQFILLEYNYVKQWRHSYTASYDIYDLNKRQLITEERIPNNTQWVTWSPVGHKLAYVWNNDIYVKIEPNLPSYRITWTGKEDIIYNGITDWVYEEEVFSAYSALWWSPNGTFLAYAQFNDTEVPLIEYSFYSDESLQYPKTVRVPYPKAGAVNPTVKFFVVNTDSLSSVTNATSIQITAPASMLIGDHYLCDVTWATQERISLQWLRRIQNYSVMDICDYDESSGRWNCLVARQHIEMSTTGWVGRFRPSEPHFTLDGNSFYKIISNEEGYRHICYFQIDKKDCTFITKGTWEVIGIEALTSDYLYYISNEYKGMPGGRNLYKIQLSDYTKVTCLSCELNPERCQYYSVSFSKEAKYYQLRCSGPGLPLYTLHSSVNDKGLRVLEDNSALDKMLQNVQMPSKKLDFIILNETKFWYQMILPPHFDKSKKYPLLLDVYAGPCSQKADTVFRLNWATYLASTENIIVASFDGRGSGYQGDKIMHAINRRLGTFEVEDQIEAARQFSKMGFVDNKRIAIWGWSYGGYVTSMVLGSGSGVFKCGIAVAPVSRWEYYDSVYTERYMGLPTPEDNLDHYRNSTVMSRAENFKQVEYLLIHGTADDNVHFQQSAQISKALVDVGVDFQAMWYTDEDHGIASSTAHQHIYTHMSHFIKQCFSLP

Compound	DPPIV inhibitory activity (in words)
C[C@H](NC(=O)[C@@H]1CCCN1)C(=O)O [PA, Pro-Ala] (H-Pro-Ala-OH; N-terminus and C-terminus assumed)	high DPPIV inhibitory activity
O=C(O)CNC(=O)[C@@H]1C[C@@H](O)CN1C(=O)[C@@H]1CCCN1 [POG, Pro-Hyp-Gly] (H-Pro-[Hyp]-Gly-OH; N-terminus and C-terminus assumed)	high DPPIV inhibitory activity

The remaining lines, values ahead:

DPPIV inhibitory activity (in words)	Compound
high DPPIV inhibitory activity	CC(C)C[C@H](N)C(=O)N1C[C@H](O)C[C@H]1C(=O)O [LO, Leu-Hyp] (H-Leu-[Hyp]-OH; N-terminus and C-terminus assumed)
high DPPIV inhibitory activity	CC(C)C[C@H](N)C(=O)N1C[C@H](O)C[C@H]1C(=O)NCC(=O)O [LOG, Leu-Hyp-Gly] (H-Leu-[Hyp]-Gly-OH; N-terminus and C-terminus assumed)
high DPPIV inhibitory activity	N[C@@H](CO)C(=O)N1C[C@H](O)C[C@H]1C(=O)O [SO, Ser-Hyp] (H-Ser-[Hyp]-OH; N-terminus and C-terminus assumed)

Same assay, conditions: peptides; human recombinant DPPIV

Compound	IC50 (concentration at which 50% of DPPIV activity was inhibited) [µM]
C[C@H](NC(=O)[C@@H]1CCCN1)C(=O)O [PA, Pro-Ala] (H-Pro-Ala-OH; N-terminus and C-terminus assumed)	1000
O=C(O)CNC(=O)[C@@H]1C[C@@H](O)CN1C(=O)[C@@H]1CCCN1 [POG, Pro-Hyp-Gly] (H-Pro-[Hyp]-Gly-OH; N-terminus and C-terminus assumed)	600

Other lines, results leading:

IC50 (concentration at which 50% of DPPIV activity was inhibited) [µM]	Compound
1700	CC(C)C[C@H](N)C(=O)N1C[C@H](O)C[C@H]1C(=O)O [LO, Leu-Hyp] (H-Leu-[Hyp]-OH; N-terminus and C-terminus assumed)
280	CC(C)C[C@H](N)C(=O)N1C[C@H](O)C[C@H]1C(=O)NCC(=O)O [LOG, Leu-Hyp-Gly] (H-Leu-[Hyp]-Gly-OH; N-terminus and C-terminus assumed)
3600	N[C@@H](CO)C(=O)N1C[C@H](O)C[C@H]1C(=O)O [SO, Ser-Hyp] (H-Ser-[Hyp]-OH; N-terminus and C-terminus assumed)

Tested on: Human-derived intestinal tract L cells (NCI-H716 cell)
Experiment: not given
Assay type: cell-based
Settings: discussion of results
Procedure: Human-derived intestinal tract L cells (NCI-H716 cell: manufactured by ATCC) were inoculated at 5×10^5 cells/mL×200 μL (1×10^5 cells/well) in a RPIM medium containing 10% FBS (manufactured by ATCC) on a Pre-coated poly-L-lysin plate (96 wells plate) and cultured for 2 days. After confirming that the cells were adhered to the plate, the medium was replaced by a test medium (146 mM NaCl, 5 mM KCl, 1.5 mM CaCl2, 1 mM MgSO4, 20 mM HEPES, 5.6 mM glucose, 2 mg/mL BSA) and a sample was added at a final concentration of 5 mM. A culture supernatant after 1 hour was 30-fold diluted with PBS, and tested with GLP-1 ELISA kit (manufactured by Levis) according to the protocol.
Based on GLP-1 secretion in the case not added with the sample (Blank) as 100%, a GLP-1 secretion accelerating percentage in the fraction added with 5 mM sample was calculated.

Compound	GLP-1 secretion accelerating activity (in words)
CC(C)C[C@H](N)C(=O)N1C[C@H](O)C[C@H]1C(=O)NCC(=O)O [LOG, Leu-Hyp-Gly] (H-Leu-[Hyp]-Gly-OH; N-terminus and C-terminus assumed)	have GLP-1 secretion accelerating activity
C[C@H](NC(=O)[C@@H]1CCCN1)C(=O)O [PA, Pro-Ala] (H-Pro-Ala-OH; N-terminus and C-terminus assumed)	have GLP-1 secretion accelerating activity
N[C@@H](CO)C(=O)N1C[C@H](O)C[C@H]1C(=O)O [SO, Ser-Hyp] (H-Ser-[Hyp]-OH; N-terminus and C-terminus assumed)	have GLP-1 secretion accelerating activity

Same assay, conditions: peptides; 5 mM sample, 1 hour, NCI-H716 cells, Blank = 100%, n = 4

Compound	GLP-1 secretion accelerating percentage [%]
CC(C)C[C@H](N)C(=O)N1C[C@H](O)C[C@H]1C(=O)NCC(=O)O [LOG, Leu-Hyp-Gly] (H-Leu-[Hyp]-Gly-OH; N-terminus and C-terminus assumed)	326 ± 17
C[C@H](NC(=O)[C@@H]1CCCN1)C(=O)O [PA, Pro-Ala] (H-Pro-Ala-OH; N-terminus and C-terminus assumed)	133 ± 85
N[C@@H](CO)C(=O)N1C[C@H](O)C[C@H]1C(=O)O [SO, Ser-Hyp] (H-Ser-[Hyp]-OH; N-terminus and C-terminus assumed)	161 ± 37

Tested on: not listed separately
Experiment: Intestinal tract absorptivity (intragastric administration, portal vein perfusate, LC/MS/MS)
Assay type: in vivo, Wistar rats
Settings: male, Wistar, rat, in vivo, po, 215 nmol/10 mL
Procedure: Male Wistar rats (170 g) were fasted overnight before subjected to the experiment. As a test sample, 215 nmol/10 mL of each of the peptides was used, and intragastrically administered. As a test method, heart and portal vein of each rat were attached with a cannula to make one-directional perfusion. […] To a perfusion sample solution (5.0 mL) collected from the portal vein was added 0.5 mL of 30% sulfosalicylic acid and stirred vigorously, and left overnight in a refrigerator. This sample was centrifuged at 3000 rpm for 10 minutes, to remove protein. For the supernatant of centrifugation, an amount of hydroxyproline in 0.5 mL was colorimetrically quantified, and an amount of free-type Hyp was obtained. […] After concentrating and drying the resultant in an evaporator, and removing the hydrochloric acid, the solid was dissolved in 5 mL of distilled water, and several drops of a saturated lithium hydroxide solution was added thereto to adjust pH at 5 to 7, and the volume was fixed at 10 mL. […] The value obtained by subtracting the amount of free-type Hyp before hydrolysis from the total Hyp amount after hydrolysis is an amount of peptide-form Hyp. From this amount of peptide-form Hyp, a quantitative value of absorption of each peptide into rat portal vein perfusate in the test sample was first determined. The colorimetric quantification of the amount of hydroxyproline was conducted by a […] and Shill method, and was concretely conducted in the following manner. That is, 2 mL of 2-propanol was added to 2 mL of a sample solution and stirred thoroughly. Then, 0.5 mL of a chloramine T liquid being an oxidizing agent was added to the mixture, and left still for accurately 4 minutes, and then cooled on ice. Then, 5 mL of a p-dimethylaminobenzaldehyde solution was added to the mixture and stirred thoroughly, and then heated in a boiling water bath for accurately 2 minutes. Then, the reaction was immediately cooled on ice, and left still for 1 hour, and then colorimetrically quantified at a wavelength of 575 nm. […] Further, the p-dimethylaminobenzaldehyde solution (Erich solution) was prepared by dissolving 20 g of p-dimethylaminobenzaldehyde powder in 22 mL of concentrated hydrochloric acid under heating in boiling water, and immediately cooling the same in ice water, and adding 122 mL of 2-propanol and dissolving it under stirring. Next, peptides collected in the rat portal vein perfusate, namely the aforementioned intestinally absorbed peptides were identified and quantified by the following HPLC analysis and mass spectrometry (LC/MS/MS). Analysis of the peptide in the perfusate was conducted by reverse-phase HPLC analysis. As a HPLC device, an LCSS-905 system manufactured by JASCO Corporation, consisting of a liquid feeding pump, a degasser, an automatic sampler, a column open, a UV spectrophotometer, a printer, and a system controller was used. As a reverse-phase column, Nova Pak C18 (3.9×150 mm) was used. […] As a HPLC device, U980HPLC (manufactured by JASCO Corporation) attached with an ODS(C18) column (Mightysil RP-18, 2×250 mm, manufactured by Kanto Chemical Co., Ltd.) was used. As a mobile phase solvent, a 0.2% formic acid-containing acetonitrile-water system was used, and the concentration of acetonitrile was increased from 0% to 40% over 40 minutes by a linear gradient, and it was washed with 100% acetonitrile for 10 minutes. […] MS analysis was conducted by a MS/MS system using a Quattro LC mass spectrophotometer (Micromass, Manchester, UK) according to a four-channel Multiple Reaction Monitoring method. To be more specific, the elute from HPLC was monitored by m/z being [M+H]^+ and by m/z of its fragment ion species. At this time, [M+H]^+ m/z was monitored using 302.2>189.4 for LOG; 286.1>189.3 for POG; 187.1>70.3 for PA; 261.1>243.4 for EO, 245.1>132.3 for LO; 245.2>132.1 for IO; 318.1>225.4 for EOG; 276.1>189.4 for SOG; 219.1>132.2 for SO; and 260.1>189.4 for AOG.

level at time molar [µM]	Compound
167.7 ± 0.9	CC(C)C[C@H](N)C(=O)N1C[C@H](O)C[C@H]1C(=O)O [LO, Leu-Hyp] (H-Leu-[Hyp]-OH; N-terminus and C-terminus assumed)
152.6 ± 1.1	C[C@H](NC(=O)[C@@H]1CCCN1)C(=O)O [PA, Pro-Ala] (H-Pro-Ala-OH; N-terminus and C-terminus assumed)
116.1 ± 0.9	N[C@@H](CO)C(=O)N1C[C@H](O)C[C@H]1C(=O)O [SO, Ser-Hyp] (H-Ser-[Hyp]-OH; N-terminus and C-terminus assumed)

Same assay, conditions: rat, po; male Wistar rats, 215 nmol/10 mL intragastrically, portal vein perfusate; read-out: Amount of peptide identified after absorption

level at time molar [µM]	Compound
116.1 ± 1	CC(C)C[C@H](N)C(=O)N1C[C@H](O)C[C@H]1C(=O)NCC(=O)O [LOG, Leu-Hyp-Gly] (H-Leu-[Hyp]-Gly-OH; N-terminus and C-terminus assumed)
129 ± 1	O=C(O)CNC(=O)[C@@H]1C[C@@H](O)CN1C(=O)[C@@H]1CCCN1 [POG, Pro-Hyp-Gly] (H-Pro-[Hyp]-Gly-OH; N-terminus and C-terminus assumed)

Source: patent publication US9061003B2, “Therapeutic or preventive agent for diabetes” (NITTA GELATIN INC., priority 2011, dated 2015)
